According to patent US8927570B2, “1-naphthyl-or 1-dihydroacenaphthenyl-pyrido[B]indoles and uses thereof in treating cancers” (priority 2009, dated 2015):

Key:
[1] = tested on: HCT116, MCF-7, A549, LNCaP, DU145 and PC-3 cancer cells; assay: Flow cytometry, cell cycle kinetics of cancer cells; format: cell-based, human; settings: 15 mM in 0.1% DMSO
Protocol: (§1) Flow cytometry experiments were performed to show the effects of Compound 19, and anticancer drugs Adriamycin or Camptothecin treatment on the cell cycle kinetics of various human cells (FIGS. 8A-8I and 9A-9I), MCF-7 breast cancer cells (FIGS. 5A-5F), A549 lung cancer cells (FIGS. 7A-7I), LNCaP (FIGS. 10A-10I), DU145 (FIGS. 11A-11I) and PC-3 (FIGS. 12A-12I) prostate cancer cells, as well as cultured normal human fibroblasts (FIGS. 6A-6F). The compound or drugs were applied at a concentration of 15 mM in 0.1% DMSO as the vehicle, and cells incubated for the time point indicated in hours (hr). The control samples were treated with vehicle without compound or drug. Red histograms represent cells in the G1/G0 phase (histogram to the left) and cells in the G2/M phases (histogram to the right). The interval between the G1/G) and G2/M histograms is the S-phase of the cell cycle. The subG1/GO histograms (cyan colored) represent cells undergoing apoptosis (programmed cell death).

[2] = tested on: cultured normal human fibroblasts; assay: Flow cytometry, cell cycle kinetics of cultured normal human fibroblasts; format: cell-based; settings: 15 mM in 0.1% DMSO; for selectivity between cancer cells and normal (fibroblast) cells: flow cytometry cell cycle kinetics
Protocol: as §1

[3] = tested on: HCT116 colon cancer cells; assay: In vitro antiproliferative activity, HCT116 colon cancer cells; format: cell-based; settings: Homo sapiens, HCT-116, Table 1
Protocol: (§2) Substituted β-carboline compounds 4 to 38 were tested for antiproliferative activity against HCT116 colon cancer cells and HPAC, Mia-PaCa2 and Panc-1 pancreatic cancer cell lines. Table 1 lists the IC50 values for the substituted β-carbolines.

[4] = tested on: HCT116 P53 −/−; assay: In vitro antiproliferative activity, HCT116 P53 −/− cells; format: cell-based; settings: Homo sapiens, HCT-116, Table 1
Protocol: as §2

[5] = tested on: HPAC pancreatic cancer cell line; assay: In vitro antiproliferative activity, HPAC pancreatic cancer cell line; format: cell-based; settings: Homo sapiens
Protocol: as §2
(§3) Substituted β-carbolines and analog compounds 39 to 57 were tested for antiproliferative activity against HPAC, Mia-PaCa2 and Panc-1 pancreatic cancer cell lines and MCF-7 and MDA-MB-468 breast cancer cell lines. Table 2 lists the IC50 values for the substituted β-carbolines and analogs thereof.

[6] = tested on: Mia-PaCa2 pancreatic cancer cell line; assay: In vitro antiproliferative activity, Mia-PaCa2 pancreatic cancer cell line; format: cell-based; settings: Homo sapiens
Protocol: as §2, §3

[7] = tested on: Panc-1 pancreatic cancer cell line; assay: In vitro antiproliferative activity, Panc-1 pancreatic cancer cell line; format: cell-based, human; settings: Homo sapiens
Protocol: as §3

[8] = tested on: MDA-MB-468 breast cancer xenografts; assay: Antitumor activity in nude mice bearing MDA-MB-468 breast cancer xenografts; format: in vivo; settings: 40 mg/kg i.p., after 18 days
Protocol: FIGS. 2A-2B illustrate antitumor activity on tumor mass (FIG. 2A) and on body weight (FIG. 2B) of compound 19 treatment in nude mice bearing human MDA-MB-468 breast cancer xenografts.
(§4) Nude mice bearing MDA-MB-468 breast cancer (FIGS. 2A-2B) and Panc-1 pancreatic cancer (FIGS. 3A-3B) xenografts were administered 40 mg/kg i.p. of compound 19 and tumor mass and body weights were measured daily for 18 days compared to a PEG-ethanol-saline control.

[9] = tested on: Panc-1 pancreatic cancer xenografts; assay: Antitumor activity in nude mice bearing Panc-1 pancreatic cancer xenografts; format: in vivo; settings: 40 mg/kg i.p., after 18 days
Protocol: FIGS. 3A-3B illustrate antitumor activity on tumor mass (FIG. 3A) and on body weight (FIG. 3B) of compound 19 treatment in nude mice bearing Panc-1 human pancreatic cancer xenografts.
as §4

[10] = tested on: DU145 prostate cancer xenografts; assay: Antitumor activity in nude mice bearing DU145 prostate cancer xenografts; format: in vivo
Protocol: FIGS. 4A-4B illustrate antitumor activity on tumor growth (FIG. 4A) and on body weight (FIG. 4B) of compound 19 treatment in nude mice bearing human DUI145 prostate cancer xenografts.
Nude mice bearing DU145 prostate cancer xenografts were administered i.p. 10 mg/kg, 20 mg/kg or control of compound 19 and tumor growth (FIG. 4A) and body weight (FIG. 4B) was monitored over 25 days. […]

[11] = tested on: MCF-7 breast cancer cell line; assay: In vitro antiproliferative activity, MCF-7 breast cancer cell line; format: cell-based, human; settings: Homo sapiens, MCF7, Table 2
Protocol: as §3

[12] = tested on: MDA-MB-468 breast cancer cell line; assay: In vitro antiproliferative activity, MDA-MB-468 breast cancer cell line; format: cell-based, human; settings: Homo sapiens, Table 2
Protocol: as §3

| IC50 ([5]; Table 2) | IC50 ([6]; MIA PaCa-2, Table 2) | IC50 ([7]; Table 2) | IC50 [11] | IC50 [12] | Structure (SMILES) | also measured |
| --- | --- | --- | --- | --- | --- | --- |
| > 50 µM | 13.1 µM | > 50 µM | 6.78 µM | 6.54 µM | Cc1ccc2[nH]c3c(-c4cccc5ccccc45)nccc3c2c1 [Compound 51, 6-Methyl-1-(naphthalen-1-yl)-9H-pyrido[3,4-b]indole] | – |
| 35.5 µM | 8.63 µM | > 50 µM | 7.61 µM | 4.99 µM | FC(F)(F)Oc1ccc2[nH]c3c(-c4cccc5ccccc45)nccc3c2c1 [Compound 52, 1-(Naphthalen-1-yl)-6-(trifluoromethoxy)-9H-pyrido[3,4-b]indole] | – |
| 10.9 µM | 26.2 µM | 30.3 µM | 11.4 µM | 5.09 µM | Brc1ccc2[nH]c3c(-c4cccc5ccccc45)nccc3c2c1 [Compound 54, 6-Bromo-1-(naphthalen-1-yl)-9H-pyrido[3,4-b]indole] | – |

The remaining lines, values behind:

| Structure (SMILES) | IC50 ([5]; Table 2) | IC50 ([6]; MIA PaCa-2, Table 2) | IC50 ([7]; Table 2) | IC50 [11] | IC50 [12] | also measured |
| --- | --- | --- | --- | --- | --- | --- |
| COc1cccc2c1C(=O)c1c(O)c3c(c(O)c1C2=O)C[C@@](O)(C(=O)CO)C[C@@H]3O[C@H]1C[C@H](N)[C@H](O)[C@H](C)O1 [Adriamycin] | – | – | – | – | – | cell cycle arrest mechanism in cancer cells [1]: primarily G1 phase arrest; selectivity between cancer cells and normal (fibroblast) cells [2]: did not show selectivity |
| CC[C@@]1(O)C(=O)OCc2c1cc1n(c2=O)Cc2cc3ccccc3nc2-1 [Camptothecin] | – | – | – | – | – | cell cycle arrest mechanism in cancer cells [1]: primarily G1 phase arrest; selectivity between cancer cells and normal (fibroblast) cells [2]: did not show selectivity |
| COc1ccc2[nH]c3c(-c4ccoc4)nccc3c2c1 [Compound 9, 1-Furan-3-yl-6-methoxy-9H-β-carboline] | – | – | – | – | – | IC50 [3]: 60.9 µM; IC50 [4]: 53.7 µM; IC50 ([5]; Table 1): 45.1 µM |
| COc1ccc2c(c1)[nH]c1c(-c3ccnc4ccccc34)nccc12 [Compound 10, 7-Methoxy-1-quinolin-4-yl-9H-β-carboline] | – | – | – | – | – | IC50 [3]: 7 µM; IC50 [4]: 18.7 µM |
| COc1ccc2[nH]c3c(-c4ccnc5ccccc45)nccc3c2c1 [Compound 11, 6-Methoxy-1-quinolin-4-yl-9H-β-carboline] | – | – | – | – | – | IC50 [3]: 0.51 µM; IC50 [4]: 0.46 µM; IC50 ([5]; Table 1): 0.56 µM; IC50 ([6]; MIA PaCa-2, Table 1): 0.49 µM; IC50 ([7]; Table 1): 0.58 µM |
| COc1ccc2[nH]c3c(-c4cccc5ccccc45)nccc3c2c1 [Compound 19, 6-Methoxy-1-naphthalen-1-yl-9H-β-carboline] | – | – | – | – | – | IC50 [3]: 0.13 µM; IC50 ([5]; Table 1): 0.29 µM; IC50 ([6]; MIA PaCa-2, Table 1): 0.2 µM; IC50 ([7]; Table 1): 0.29 µM; body weight [8]: nor had body weight decreased; tumor mass ([8]; vs PEG-ethanol-saline control): had not increased; body weight [9]: nor had body weight decreased; tumor mass ([9]; vs PEG-ethanol-saline control): had not increased; body weight ([10]; 10 mg/kg and 20 mg/kg i.p., over 25 days): remained fairly constant; percent of tumor growth ([10]; 10 mg/kg i.p., at about day 7): less than control; rate of tumor growth ([10]; 10 mg/kg i.p., over the 25 days): about equivalent to that of control; tumor growth ([10]; 20 mg/kg i.p., over 25 days): significant decrease in tumor growth compared to 10 mg/kg and control; cell cycle arrest mechanism in cancer cells [1]: G2/M arrest mechanism(s); perturbation of the cell cycle of normal human cells ([2]; normal human fibroblasts): no significant perturbation |
| Cc1ccc2[nH]c3c(-c4cccc5c(Br)cccc45)nccc3c2c1 [Compound 46, 1-(5-bromonaphthalen-1-yl)-6-methyl-9H-pyrido[3,4-b]indole] | > 50 µM | 41.7 µM | > 50 µM | > 50 µM | > 50 µM | – |
| Clc1ccc2sc3c(-c4cccc5ccccc45)nccc3c2c1 [Compound 48, 6-Chloro-1-(naphthalen-1-yl)benzo[4,5]thieno[2,3-c]pyridine] | 50 µM | 13.5 µM | > 50 µM | 48.6 µM | 6.05 µM | – |
| c1ccc2c(-c3nccc4c3oc3ccccc34)cccc2c1 [Compound 49, 1-(naphthalen-1-yl)benzofuro[2,3-c]pyridine] | > 50 µM | 33.6 µM | > 50 µM | > 50 µM | 50 µM | – |
| c1ccc2c(-c3nccc4c3sc3ccccc34)cccc2c1 [Compound 50, 1-(Naphthalen-1-yl)benzo[4,5]thieno[2,3-c]pyridine] | > 50 µM | > 50 µM | > 50 µM | > 50 µM | 14.7 µM | – |
| N#Cc1ccc2[nH]c3c(-c4cccc5ccccc45)nccc3c2c1 [Compound 53, 1-(Naphthalen-1-yl)-9H-pyrido[3,4-b]indole-6-carbonitrile] | 50 µM | 40.4 µM | > 50 µM | > 50 µM | 30.2 µM | – |
| CCOC(=O)c1cc2c([nH]c3ccc(OC)cc32)c(-c2cccc3ccccc23)n1 [Compound 55, Ethyl-6-methoxy-1-(naphthalen-1-yl)-9H-pyrido[3,4-b]indole-3-carboxylate] | 12.9 µM | 17.5 µM | 23.3 µM | 17.6 µM | 5.67 µM | – |
| Cn1c2ccccc2c2ccnc(-c3cccc4ccccc34)c21 [Compound 56, 9-Methyl-1-(naphthalen-1-yl)-9H-pyrido[3,4-b]indole] | 21.2 µM | 37.4 µM | 33.9 µM | 50.8 µM | 14.2 µM | – |
| COc1ccc2c(c1)c1ccnc(-c3cccc4ccccc34)c1n2C [Compound 57, 6-Methoxy-9-methyl-1-(naphthalen-1-yl)-9H-pyrido[3,4-b]indole] | 44.2 µM | 34 µM | 41.3 µM | 52 µM | 17.8 µM | – |
